Measured values as given in ChEMBL document CHEMBL4184082 (Bioorg Med Chem Lett, 2018).
≈ marks a conversion by molar mass, not a printed value.

Key:
[1] = AUC (0 to last) in rat at 100 mg/kg; format: ADME, organism-based; parameters: dose 100 mg/kg, time 0 - last; conditions: in vivo
[2] = AUC (0 to last) in rat at 300 mg/kg; format: ADME, organism-based; parameters: dose 300 mg/kg, time 0 - last; conditions: in vivo
Rattus norvegicus [3] = assay: Toxicity in rat assessed as effect on food intake at 300 mg/kg administered for 6 days; format: organism-based; conditions: in vivo, 144 h
Mus musculus = assay: Reversal of thermal injury-induced muscle damage in C57BL/6 mouse assessed as reduction in Evans blue dye retention time at 10 mg/kg, po administered once daily via gavage treated for 10 days prior to thermal injury on day 4 and subsequent Evans blue dye injection on day 8 measured on day 9 post last dose relative to control; format: functional; parameters: scale not given: the % may be the effect or the level left
Rattus norvegicus [4] = assay: Tumorigenic activity in rat assessed as effect on cell proliferation in non-glandular stomach at 300 mg/kg administered for 6 days and subsequent treatment at 200 mg/kg for 3 days measured on post last dose by Ki-67 staining based histopathological analysis relative to control; format: ADME, organism-based; conditions: in vivo
Rattus norvegicus [5] = assay: Toxicity in rat assessed as reduction in body weight at 300 mg/kg administered for 6 days; format: organism-based; conditions: in vivo, 144 h
Rattus norvegicus [6] = assay: Tumorigenic activity in rat assessed as effect on cell proliferation in non-glandular stomach at 30 mg/kg administered for 14 days measured on post last dose by Ki-67 staining based histopathological analysis relative to control; format: ADME, organism-based; conditions: in vivo, 336 h
[7] = AUC (0 to last) in rat at 30 mg/kg; format: ADME, organism-based; parameters: dose 30 mg/kg, time 0 - last; conditions: in vivo
[8] = AUC (0 to last) in rat at 300 mg/kg measured on day 8; format: ADME, organism-based; parameters: dose 300 mg/kg, time 0 - last; conditions: in vivo
[9] = Thermodynamic solubility of the compound; format: physicochemical; conditions: read-out: Therm_solubility
Rattus norvegicus [10] = assay: Tumorigenic activity in rat assessed as effect on cell proliferation in non-glandular stomach at 100 mg/kg administered for 14 days measured on post last dose by Ki-67 staining based histopathological analysis relative to control; format: ADME, organism-based; conditions: in vivo, 336 h

AUC(0-t) [1] [µg·h/mL]	AUC(0-t) [2] [µg·h/mL]	AUC(0-t) [7] [µg·h/mL]	AUC(0-t) [8] [µg·h/mL]	solubility thermodynamic [9] [µM]	Compound	Activity (Rattus norvegicus [3])	Activity (Mus musculus) [%]	Activity (Rattus norvegicus [4]) [%]	Activity (Rattus norvegicus [5])	Activity (Rattus norvegicus [6]) [%]	Activity (Rattus norvegicus [10]) [%]
48	201				C/C(=C\COc1ccccc1CN(C)C(=O)c1ccc(-c2ccco2)cc1)CCC(=O)O						
613		72	2270	250 (≈ 113 µg/mL)	Cc1cc(SCc2sc(-c3ccc(C(F)(F)F)cc3)nc2C)ccc1OCC(=O)O [GW501516]	Toxic	48	190	Toxic	34	81
